Measurements taken from US20240150377A1, “MODULATORS OF CYSTIC FIBROSIS TRANSMEMBRANE CONDUCTANCE REGULATOR” (VERTEX PHARMACEUTICALS INCORPORATED, priority 2020, published 2024).

Biological target: T1, CFTR (Homo sapiens, UniProt P13569, DEL508-508)
T1 construct: endogenous in cells; host or cells: primary human bronchial epithelial cells from CF subjects (F508del/MF-HBE), differentiated at air-liquid interface
Experiment: HBE2 assay: Ussing chamber assay of CFTR-mediated short-circuit currents
Format: cell-based
Conditions: F508del/MF-HBE cells, with 44 nM potentiator, 18-24 hours, 20% human serum; for Emax: read-out: HBE2 Max activity (%)
Outline: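 F508del/MF-HBE cultured >14 days at air-liquid interface, mounted in Ussing chambers; transepithelial short-circuit current recorded under voltage clamp (Vhold=0 mV) at 37 °C. CFTR-mediated ISC (μA/cm^2) taken as peak forskolin response relative to steady-state current after inhibition; corrector activity assessed this way.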

T1 sequence (P13569 with tags, fused parts or gaps DEL508-508): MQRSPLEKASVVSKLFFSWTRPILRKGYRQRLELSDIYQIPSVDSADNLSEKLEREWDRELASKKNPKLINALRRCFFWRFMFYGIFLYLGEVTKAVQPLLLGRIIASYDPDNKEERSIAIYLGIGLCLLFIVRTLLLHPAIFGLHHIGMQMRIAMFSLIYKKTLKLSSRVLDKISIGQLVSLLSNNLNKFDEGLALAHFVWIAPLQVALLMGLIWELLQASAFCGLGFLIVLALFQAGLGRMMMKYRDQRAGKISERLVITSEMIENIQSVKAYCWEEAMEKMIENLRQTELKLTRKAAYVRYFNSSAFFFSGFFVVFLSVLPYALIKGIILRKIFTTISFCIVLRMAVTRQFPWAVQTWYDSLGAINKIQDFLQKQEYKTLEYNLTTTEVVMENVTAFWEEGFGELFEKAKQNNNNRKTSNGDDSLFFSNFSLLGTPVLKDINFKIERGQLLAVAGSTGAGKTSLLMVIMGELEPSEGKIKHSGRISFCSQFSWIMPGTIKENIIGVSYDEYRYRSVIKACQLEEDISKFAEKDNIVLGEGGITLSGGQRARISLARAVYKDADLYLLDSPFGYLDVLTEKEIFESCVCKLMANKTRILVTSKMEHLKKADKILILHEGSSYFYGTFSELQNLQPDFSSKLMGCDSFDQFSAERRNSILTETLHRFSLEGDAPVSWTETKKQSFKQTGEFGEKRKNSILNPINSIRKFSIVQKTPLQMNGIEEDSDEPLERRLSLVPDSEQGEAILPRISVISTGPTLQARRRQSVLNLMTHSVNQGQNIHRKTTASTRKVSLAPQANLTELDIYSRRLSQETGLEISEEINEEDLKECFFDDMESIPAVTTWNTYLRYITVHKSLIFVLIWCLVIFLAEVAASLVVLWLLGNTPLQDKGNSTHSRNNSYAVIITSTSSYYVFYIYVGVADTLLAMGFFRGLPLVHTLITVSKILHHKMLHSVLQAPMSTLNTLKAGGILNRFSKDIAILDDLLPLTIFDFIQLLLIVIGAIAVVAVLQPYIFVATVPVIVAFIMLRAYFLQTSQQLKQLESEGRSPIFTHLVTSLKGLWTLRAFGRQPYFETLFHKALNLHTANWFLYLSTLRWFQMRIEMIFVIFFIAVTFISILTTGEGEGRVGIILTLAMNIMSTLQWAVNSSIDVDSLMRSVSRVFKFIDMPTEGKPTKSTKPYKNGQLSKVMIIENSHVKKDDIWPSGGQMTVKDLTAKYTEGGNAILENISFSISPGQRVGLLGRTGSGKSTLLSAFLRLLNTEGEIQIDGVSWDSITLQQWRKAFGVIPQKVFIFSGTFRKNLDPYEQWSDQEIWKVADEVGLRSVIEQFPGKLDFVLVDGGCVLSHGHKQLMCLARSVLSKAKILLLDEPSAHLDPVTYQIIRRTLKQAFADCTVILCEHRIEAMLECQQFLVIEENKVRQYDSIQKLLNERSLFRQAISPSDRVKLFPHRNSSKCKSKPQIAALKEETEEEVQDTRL

HBE2 Activity at 3 μM (%) (3 μM corrector)	SMILES	also measured
+++ (+++ is >60+)	Cc1cccc(C)c1-c1cc2nc(n1)NS(=O)(=O)c1cccc(c1)C(=O)N(Cc1cncc(N(C)C3CCC3)n1)[C@H](c1ccccc1)CO2 [Compound 1731]	
+++ (+++ is >60+)	Cc1cccc(C)c1-c1cc2nc(n1)NS(=O)(=O)c1cccc(c1)C(=O)N(Cc1cncc(N(C)C(C)C)n1)[C@H](CC1(C)CCC1)CO2 [Compound 1745]	
	Cc1cccc(C)c1-c1cc2nc(n1)NS(=O)(=O)c1cccc(c1)C(=O)N(Cc1cncc(N3CC[C@H]3C3CCC3)n1)[C@H](CC(C)(C)C)CO2 (stereo in doubt) [Compound 1637]	HBE2 Activity at 3 μM (%) (3 μM): +++ (+++ is >60+)
	Cc1cccc(C)c1-c1cc2nc(n1)NS(=O)(=O)c1cccc(c1)C(=O)N(Cc1cncc(N(C)C3CCC3)n1)[C@H](CC1(C)CC1)CO2 [Compound 1668]	HBE2 Activity at 3 μM (%) (3 μM): +++ (+++ is >60+); EC50: < 1000 nM; Emax: > 60%
+++ (+++ is >60+)	Cc1cccc(C)c1-c1cc2nc(n1)NS(=O)(=O)c1cccc(c1)C(=O)N(Cc1cncc(N(C)[C@H]3C[C@@H](F)C3)n1)[C@H](COC1CC1)CO2 [Compound 1906]	
	Cc1cccc(C)c1-c1cc2nc(n1)NS(=O)(=O)c1cccc(c1)C(=O)N(Cc1cncc(N(C)CCO)n1)[C@H](CC(C)(C)C)CO2 [Compound 1665]	HBE2 Activity at 3 μM (%) (3 μM): +++ (+++ is >60+)
	CCCOc1cnc(CN2C(=O)c3cccc(c3)S(=O)(=O)Nc3nc(cc(-c4c(C)cccc4C)n3)OC[C@H]2CC2(C)CC2)nc1 [Compound 1562]	HBE2 Activity at 3 μM (%) (3 μM): +++ (+++ is >60+)
+++ (+++ is >60+)	Cc1cccc(C)c1-c1cc2nc(n1)NS(=O)(=O)c1cccc(c1)C(=O)N(Cc1cncc(N3CC[C@H]3C)n1)[C@H](CC1CCCCC1)CO2 [Compound 1823]	
	Cc1cccc(C)c1-c1cc2nc(n1)NS(=O)(=O)c1cccc(c1)C(=O)N(Cc1ncc(N3CC(C)(C)C3)cn1)[C@H](CC1CCC1)CO2 [Compound 1594]	EC50: < 1000 nM; Emax: > 60%
+++ (+++ is >60+)	Cc1cccc(C)c1-c1cc2nc(n1)NS(=O)(=O)c1cccc(c1)C(=O)N(Cc1cncc(N3CC[C@@H]4CC[C@@H]43)n1)[C@H](CCC1CC1)CO2 [Compound 1922]	
+++ (+++ is >60+)	Cc1cccc(C)c1-c1cc2nc(n1)NS(=O)(=O)c1cccc(c1)C(=O)N(Cc1cncc(N3CCCC[C@H]3C)n1)[C@H](CC1CC(C)(C)C1)CO2 [Compound 1901]	
+++ (+++ is >60+)	Cc1cccc(C)c1-c1cc2nc(n1)NS(=O)(=O)c1cccc(c1)C(=O)N(Cc1cncc(N3CCCC[C@H]3C)n1)[C@H](CCC(C)C)CO2 [Compound 1749]	
++ (++ is 30-60%)	Cc1cccc(C)c1-c1cc2nc(n1)NS(=O)(=O)c1cccc(c1)C(=O)N(Cc1cncc(N(C)C3CCC3)n1)[C@@H]1CN(CCC(C)(C)C)C[C@H]1O2 [Compound 1741]	
	Cc1cccc(C)c1-c1cc2nc(n1)NS(=O)(=O)c1cccc(c1)C(=O)N(Cc1ncc(OC(C)C)cn1)[C@H]([C@@H](C)C(C)C)CO2 (stereo in doubt) [Compound 1572]	HBE2 Activity at 3 μM (%) (3 μM): +++ (+++ is >60+)
	Cc1cccc(C)c1-c1cc2nc(n1)NS(=O)(=O)c1cccc(c1)C(=O)N(Cc1cncc(N3CC[C@H]4CN(C(=O)OC(C)C)CC43)n1)[C@H](CC(C)(C)C)CO2 (stereo in doubt) [Compound 1664]	HBE2 Activity at 3 μM (%) (3 μM): +++ (+++ is >60+)
+++ (+++ is >60+)	Cc1cccc(C)c1-c1cc2nc(n1)NS(=O)(=O)c1cccc(c1)C(=O)N(Cc1nccc(N(C)C(C)C)n1)[C@H](CCC(C)C)CO2 [Compound 1734]	
+++ (+++ is >60+)	CC[C@H]1CCCN1c1cncc(CN2C(=O)c3cccc(c3)S(=O)(=O)Nc3nc(cc(-c4c(C)cccc4C)n3)OC[C@H]2COC2CC2)n1 (stereo in doubt) [Compound 1890]	
+++ (+++ is >60+)	Cc1cccc(C)c1-c1cc2nc(n1)NS(=O)(=O)c1cccc(c1)C(=O)N(Cc1cncc(N(C)C3CCC3)n1)[C@]1(CCC(C)(C)C1)CO2 (single isomer, unassigned) [Compound 1326, 12-[[6-[cyclobutyl(methyl)amino]pyrazin-2-yl]methyl]-6-(2,6-dimethylphenyl)-1′,1′-dimethyl-2,2-dioxo-spiro[9-oxa-2λ^6-thia-3,5,12,19-tetrazatricyclo[12.3.1.14,8]nonadeca-1(18),4(19),5,7,14,16-hexaene-11,3′-cyclopentane]-13-one]	
+++ (+++ is >60+)	Cc1cccc(C)c1-c1cc2nc(n1)NS(=O)(=O)c1cccc(c1)C(=O)N(Cc1cnc3cc(C(C)C)n(C)c3n1)[C@H](CC1CCC1)CO2 [Compound 1830]	
+++ (+++ is >60+)	Cc1cccc(C)c1-c1cc2nc(n1)NS(=O)(=O)c1cccc(c1)C(=O)N(Cc1cnc3cc(C(C)C)n(C)c3n1)[C@H](C[C@H]1CCCOC1)CO2 [Compound 1931]	

HBE2 Activity at 3 μM (%) (3 μM corrector)	SMILES	also measured
	Cc1cccc(C)c1-c1cc2nc(n1)NS(=O)(=O)c1cccc(c1)C(=O)N(Cc1cccc(N(C)C3CCC3)n1)[C@H](CC(C)(C)C)CO2 [Compound 1578]	HBE2 Activity at 3 μM (%) (3 μM): +++ (+++ is >60+); EC50: < 1000 nM; Emax: > 60%
	Cc1cccc(C)c1-c1cc2nc(n1)NS(=O)(=O)c1cccc(c1)C(=O)N(Cc1cncc(N(C)C3CCC3)n1)[C@H](CC(C)(C)F)CO2 [Compound 1701]	EC50: < 1000 nM; Emax: > 60%
	Cc1cccc(C)c1-c1cc2nc(n1)NS(=O)(=O)c1cccc(c1)C(=O)N(Cc1cncc(N(C)CC3CCC3)n1)[C@H](CC(C)(C)C)CO2 [Compound 1614]	HBE2 Activity at 3 μM (%) (3 μM): +++ (+++ is >60+)
+++ (+++ is >60+)	Cc1cccc(C)c1-c1cc2nc(n1)NS(=O)(=O)c1cccc(c1)C(=O)N(Cc1cncc(N3CCC[C@H]3C)n1)[C@H](CC1CC(C)(C)C1)CO2 [Compound 1899]	
+++ (+++ is >60+)	CCN(CC1CC1)c1cncc(CN2C(=O)c3cccc(c3)S(=O)(=O)Nc3nc(cc(-c4c(C)cccc4C)n3)OC[C@H]2CCC(C)(C)C)n1 [Compound 1809]	
+++ (+++ is >60+)	Cc1cccc(C)c1-c1cc2nc(n1)NS(=O)(=O)c1cccc(c1)C(=O)N(Cc1cncc(N(C)C3CC4(CC4)C3)n1)[C@H](COC1CC1)CO2 [Compound 1904]	
+++ (+++ is >60+)	Cc1cccc(C)c1-c1cc2nc(n1)NS(=O)(=O)c1cccc(c1)C(=O)N(Cc1cnc3cc(C(C)C)n(C)c3n1)[C@H](COC1CC1)CO2 [Compound 1889]	
	Cc1ccccc1-c1cc2nc(n1)NS(=O)(=O)c1cccc(c1)C(=O)N(Cc1cncc(N(C)C3CCC3)n1)[C@H](CC(C)(C)C)CO2 [Compound 1705]	HBE2 Activity at 3 μM (%) (3 μM): +++ (+++ is >60+); EC50: < 1000 nM; Emax: > 60%
+++ (+++ is >60+)	Cc1cccc(C)c1-c1cc2nc(n1)NS(=O)(=O)c1cccc(c1)C(=O)N(Cc1cncc(N(C)CC(C)C)n1)[C@H](CC1(C)CCC1)CO2 [Compound 1774]	
	Cc1cccc(C)c1-c1cc2nc(n1)NS(=O)(=O)c1cccc(c1)C(=O)N(Cc1cncc(N3C(=O)OC[C@H]3C)n1)[C@H](CC(C)(C)C)CO2 [Compound 1653]	HBE2 Activity at 3 μM (%) (3 μM): +++ (+++ is >60+)
+++ (+++ is >60+)	Cc1cccc(C)c1-c1cc2nc(n1)NS(=O)(=O)c1cccc(c1)C(=O)N(Cc1cccc(N3CCC[C@H]3C)n1)[C@H](CCC(C)(C)C)CO2 [Compound 1789]	
+++ (+++ is >60+)	Cc1cccc(C)c1-c1cc2nc(n1)NS(=O)(=O)c1cccc(c1)C(=O)N(Cc1cncc(N3CCC[C@H]3C)n1)[C@H](CC1CCCCC1)CO2 [Compound 1331, (11R)-11-(Cyclohexylmethyl)-6-(2,6-dimethylphenyl)-12-[[6-[(2R)-2-methylpyrrolidin-1-yl]pyrazin-2-yl]methyl]-2,2-dioxo-9-oxa-2^6-thia-3,5,12,19-tetrazatricyclo[12.3.1.14,8]nonadeca-1(18),4(19),5,7,14,16-hexaen-13-one]	
+++ (+++ is >60+)	Cc1cccc(C)c1-c1cc2nc(n1)NS(=O)(=O)c1cccc(c1)C(=O)N(Cc1cncc(N3C[C@H]4CCCC[C@H]43)n1)[C@H](CC(C)(C)C)CO2 [Compound 1800]	
+++ (+++ is >60+)	Cc1cccc(C)c1-c1cc2nc(n1)NS(=O)(=O)c1cccc(c1)C(=O)N(Cc1cncc(N3CCC[C@H]4CC[C@H]43)n1)[C@H](CCC(C)C)CO2 (stereo in doubt) [Compound 1746]	
+++ (+++ is >60+)	Cc1cccc(C)c1-c1cc2nc(n1)NS(=O)(=O)c1cccc(c1)C(=O)N(Cc1cncc(N(C)[C@H]3C[C@@H](C)C3)n1)[C@H](CCC(C)(C)C)CO2 [Compound 1884]	
+++ (+++ is >60+)	Cc1cccc(C)c1-c1cc2nc(n1)NS(=O)(=O)c1cccc(c1)C(=O)N(Cc1ccc3nc(C(C)C)n(C)c3n1)[C@H](COC(C)C)CO2 [Compound 1930]	
++ (++ is 30-60%)	Cc1cccc(C)c1-c1cc2nc(n1)NS(=O)(=O)c1cccc(c1)C(=O)N(Cc1cncc(N3CCCC[C@H]3C)n1)[C@@H](CCC(C)(C)F)CO2 (single isomer, unassigned) [Compound 1328]	
+++ (+++ is >60+)	Cc1cccc(C)c1-c1cc2nc(n1)NS(=O)(=O)c1cccc(c1)C(=O)N(Cc1cncc(N3CCCC[C@H]3C)n1)[C@H](C[C@H]1CCCOC1)CO2 (stereo in doubt) [Compound 1942]	
+++ (+++ is >60+)	Cc1cccc(C)c1-c1cc2nc(n1)NS(=O)(=O)c1cccc(c1)C(=O)N(Cc1cncc(N3CCC[C@H]3C3CC3)n1)[C@H](CC1CCCCC1)CO2 [Compound 1866]	
+++ (+++ is >60+)	Cc1cccc(C)c1-c1cc2nc(n1)NS(=O)(=O)c1cccc(c1)C(=O)N(Cc1cncc(N(C)C3CC4(CC4)C3)n1)[C@H](COC(C)C)CO2 [Compound 1949]	
